Each block holds one molecule with its values, some of them ahead of it.
Assays:
[1] = logP by HPLC on reversed-phase column (EEC Directive 79/831 Annex V.A8); format: physicochemical; settings: HPLC on reversed-phase column (C 18), 40° C., 0.1% aqueous formic acid and acetonitrile, linear gradient 10% to 90% acetonitrile
Protocol: In table 1, the logP values were determined in accordance with EEC Directive 79/831 Annex V.A8 by HPLC (High Performance Liquid Chromatography) on a reversed-phase column (C 18), using the method described below: Temperature: 40° C.; Mobile phases: 0.1% aqueous formic acid and acetonitrile; linear gradient from 10% acetonitrile to 90% acetonitrile. Calibration was carried out using unbranched alkan-2-ones (comprising 3 to 16 carbon atoms) with known logP values (determination of the logP values by the retention times using linear interpolation between two successive alkanones). lambda-max-values were determined using UV-spectra from 200 nm to 400 nm and the peak values of the chromatographic signals.

Sphaerotheca fuliginea = test: In vivo preventive test on Sphaerotheca fuliginea (cucumber); settings: 500 ppm of active ingredient, evaluated 7 days after inoculation
Alternaria solani = test: In vivo preventive test on Alternaria solani (tomato); settings: 500 ppm of active ingredient, evaluated 7 days after inoculation
Protocol: The plants remain for one day in an incubation cabinet at approximately 22° C. and a relative atmospheric humidity of 100%. Then the plants are placed in an incubation cabinet at approximately 20° C. and a relative atmospheric humidity of 96%.

Pyrenophora teres = test: In vivo preventive test on Pyrenophora teres (barley); settings: 500 ppm of active ingredient, evaluated 7-9 days after inoculation
Protocol: The plants remain for 48 hours in an incubation cabinet at 22° C. and a relative atmospheric humidity of 100%.

Structure (SMILES): CC(c1ccccc1Cl)C1CCCN1C(=O)c1c(C(F)F)nn(C)c1F (mixture of isomers) [Example 62]
logP [1]: 3.29

Structure (SMILES): CC(c1ccc(Cl)cc1Cl)C1CCCN1C(=O)c1c(C(F)F)nn(C)c1F (mixture of isomers) [Example 71]
logP [1]: 3.87

Structure (SMILES): CC(c1c(Cl)cccc1Cl)C1CCCN1C(=O)c1c(C(F)F)nn(C)c1F (mixture of isomers) [Example 78]
logP [1]: 3.52

Structure (SMILES): Cn1nc(C(F)F)c(C(=S)N2CCCC2Cc2ccccc2Cl)c1F (racemic) [Example 61]
Efficacy (Sphaerotheca fuliginea): 95% | Efficacy (Alternaria solani): 100% | logP [1]: 3.83 | Efficacy (Pyrenophora teres): 100%

Structure (SMILES): Cn1nc(C(F)F)c(C(=O)N2CCCC2Cc2ccc(C(C)(C)C)cc2)c1F (racemic) [Example 68]
Efficacy (Alternaria solani): 94% | logP [1]: 4.24 | Efficacy (Pyrenophora teres): 100%

Structure (SMILES): Cn1nc(C(F)F)c(C(=O)N2CCCC2Cc2cccc(Cl)c2Cl)c1F (racemic) [Example 69]
Efficacy (Sphaerotheca fuliginea): 88% | Efficacy (Alternaria solani): 100% | logP [1]: 3.64 | Efficacy (Pyrenophora teres): 100%

Structure (SMILES): Cn1nc(C(F)F)c(C(=S)N2CCCC2Cc2cccc(Cl)c2Cl)c1F (racemic) [Example 70]
Efficacy (Alternaria solani): 95% | logP [1]: 4.46 | Efficacy (Pyrenophora teres): 100%

Structure (SMILES): Cn1nc(C(F)F)c(C(=S)N2CCCC2Cc2c(Cl)cccc2Cl)c1F (racemic) [Example 77]
Efficacy (Sphaerotheca fuliginea): 95% | Efficacy (Alternaria solani): 100% | logP [1]: 4.06 | Efficacy (Pyrenophora teres): 100%

Structure (SMILES): Cn1nc(C(F)F)c(C(=O)N2CCCC2Cc2ccc(Br)cc2)c1F (racemic) [Example 80]
Efficacy (Sphaerotheca fuliginea): 89% | Efficacy (Alternaria solani): 100% | logP [1]: 3.39 | Efficacy (Pyrenophora teres): 100%

Structure (SMILES): Cn1nc(C(F)F)c(C(=O)N2CCCC2Cc2cccc3ccccc23)c1F (racemic) [Example 83]
Efficacy (Alternaria solani): 100% | logP [1]: 3.52 | Efficacy (Pyrenophora teres): 100%

Structure (SMILES): Cn1nc(C(F)F)c(C(=O)N2CCCC2CCc2ccccc2)c1F (racemic) [Example 84]
Efficacy (Alternaria solani): 90% | logP [1]: 3.02 | Efficacy (Pyrenophora teres): 100%

Structure (SMILES): Cn1nc(C(F)F)c(C(=O)N2CCCC2CS(=O)(=O)c2ccccc2)c1F (racemic) [Example 87]
logP [1]: 2.13

Structure (SMILES): Cn1nc(C(F)F)c(C(=O)N2CCCC2CS(=O)(=O)c2ccccc2)c1Cl (racemic) [Example 88]
logP [1]: 2.20

Structure (SMILES): Cc1ccccc1C1CCCN1C(=O)c1c(C(F)F)nn(C)c1Cl (centres unmarked) [Example 1]
Efficacy (Alternaria solani): 80% | logP [1]: 2.90 | Efficacy (Pyrenophora teres): 80%

Structure (SMILES): Cc1ccccc1C1CCCN1C(=O)c1c(C(F)F)nn(C)c1F (centres unmarked) [Example 2]
Efficacy (Sphaerotheca fuliginea): 95% | Efficacy (Alternaria solani): 90% | logP [1]: 2.75 | Efficacy (Pyrenophora teres): 100%

Structure (SMILES): COc1ccccc1C1CCCN1C(=O)c1c(C(F)F)nn(C)c1F (centres unmarked) [Example 3]
Efficacy (Alternaria solani): 80% | logP [1]: 2.59

Structure (SMILES): COc1ccc(C2CCCN2C(=O)c2c(C(F)F)nn(C)c2F)cc1 (centres unmarked) [Example 4]
Efficacy (Alternaria solani): 80% | logP [1]: 2.42

Structure (SMILES): Cn1nc(C(F)F)c(C(=O)N2CCCC2c2cc(F)cc(F)c2)c1F (centres unmarked) [Example 10]
Efficacy (Sphaerotheca fuliginea): 85% | Efficacy (Alternaria solani): 95% | logP [1]: 2.70 | Efficacy (Pyrenophora teres): 100%

Structure (SMILES): Cn1nc(C(F)F)c(C(=O)N2CCCC2c2ccc(C(C)(C)C)cc2)c1F (centres unmarked) [Example 13]
Efficacy (Sphaerotheca fuliginea): 93% | Efficacy (Alternaria solani): 100% | logP [1]: 3.74 | Efficacy (Pyrenophora teres): 100%

Structure (SMILES): Cn1nc(C(F)F)c(C(=O)N2CCCC2c2ccccc2C(F)(F)F)c1F (centres unmarked) [Example 15]
Efficacy (Alternaria solani): 95% | logP [1]: 3.09 | Efficacy (Pyrenophora teres): 100%

Structure (SMILES): Cn1nc(C(F)F)c(C(=S)N2CCCC2c2cccc(C(F)(F)F)c2)c1Cl (centres unmarked) [Example 19]
logP [1]: 3.79 | Efficacy (Pyrenophora teres): 100%

Structure (SMILES): Cn1nc(C(F)F)c(C(=O)N2CCCC2c2ccc(C(F)(F)F)cc2)c1Cl (centres unmarked) [Example 20]
Efficacy (Alternaria solani): 70% | logP [1]: 3.25 | Efficacy (Pyrenophora teres): 70%

Structure (SMILES): Cn1nc(C(F)F)c(C(=O)N2CCCC2c2ccc(-c3ccccc3)cc2)c1F (centres unmarked) [Example 29]
Efficacy (Alternaria solani): 95% | logP [1]: 3.50 | Efficacy (Pyrenophora teres): 100%

Structure (SMILES): Cn1nc(C(F)F)c(C(=O)N2CCCC2c2cc(C(F)(F)F)cc(C(F)(F)F)c2)c1Cl (centres unmarked) [Example 40]
Efficacy (Alternaria solani): 95% | logP [1]: 3.79 | Efficacy (Pyrenophora teres): 95%

Structure (SMILES): Cn1nc(C(F)F)c(C(=O)N2CCCC2c2cccc3ccccc23)c1F (centres unmarked) [Example 41]
Efficacy (Sphaerotheca fuliginea): 75% | logP [1]: 3.08 | Efficacy (Pyrenophora teres): 90%

Structure (SMILES): Cn1nc(C(F)F)c(C(=O)N2CCCC2c2ccco2)c1F (centres unmarked) [Example 42]
logP [1]: 2.13

Structure (SMILES): Cn1nc(C(F)F)c(C(=O)N2CCCC2c2ccccn2)c1F (centres unmarked) [Example 43]
logP [1]: 0.92

Structure (SMILES): Cn1nc(C(F)F)c(C(=O)N2CCCC2c2cccnc2)c1F (centres unmarked) [Example 44]
logP [1]: 0.48

Structure (SMILES): Cn1nc(C(F)F)c(C(=O)N2CCCC2c2cccs2)c1F (centres unmarked) [Example 45]
Efficacy (Alternaria solani): 90% | logP [1]: 2.39 | Efficacy (Pyrenophora teres): 95%

Structure (SMILES): Cn1nc(C(F)F)c(C(=O)N2CCCC2c2cnc3ccccc3c2)c1F (centres unmarked) [Example 46]
logP [1]: 1.50

Structure (SMILES): Cn1nc(C(F)F)c(C(=O)N2CCCC2c2cc3ccccc3s2)c1F (centres unmarked) [Example 48]
Efficacy (Sphaerotheca fuliginea): 93% | logP [1]: 3.11 | Efficacy (Pyrenophora teres): 100%

Structure (SMILES): Cn1nc(C(F)F)c(C(=O)N2CCCC2c2nc3ccccc3s2)c1F (centres unmarked) [Example 51]
logP [1]: 2.49 | Efficacy (Pyrenophora teres): 95%

Structure (SMILES): Cn1nc(C(F)F)c(C(=O)N2CCC[C@H]2COc2ccc(Cl)cc2)c1F [Example 85]
logP [1]: 3.29

Continued, in another order:

logP [1]: 3.46
Structure (SMILES): CC(c1ccccc1Cl)C1CCCN1C(=O)c1c(C(F)F)nn(C)c1Cl (mixture of isomers) [Example 63]

logP [1]: 4.06
Structure (SMILES): CC(c1ccc(Cl)cc1Cl)C1CCCN1C(=O)c1c(C(F)F)nn(C)c1Cl (mixture of isomers) [Example 72]

logP [1]: 3.76
Structure (SMILES): CC(c1cc(Cl)ccc1Cl)C1CCCN1C(=O)c1c(C(F)F)nn(C)c1F (mixture of isomers) [Example 73]

logP [1]: 3.96
Structure (SMILES): CC(c1cc(Cl)ccc1Cl)C1CCCN1C(=O)c1c(C(F)F)nn(C)c1Cl (mixture of isomers) [Example 74]

logP [1]: 3.81
Structure (SMILES): CC(c1c(Cl)cccc1Cl)C1CCCN1C(=O)c1c(C(F)F)nn(C)c1Cl (mixture of isomers) [Example 79]

logP [1]: 3.50
Structure (SMILES): Cn1nc(C(F)F)c(C(=O)N2CCCC2Cc2c(Cl)cccc2Cl)c1Cl (racemic) [Example 75]
Efficacy (Alternaria solani): 90% | Efficacy (Pyrenophora teres): 100%

logP [1]: 3.04
Structure (SMILES): Cn1nc(C(F)F)c(C(=O)N2CCCC2c2ccccc2Cl)c1Cl (centres unmarked) [Example 5]
Efficacy (Alternaria solani): 80% | Efficacy (Pyrenophora teres): 80%

logP [1]: 2.90
Structure (SMILES): Cn1nc(C(F)F)c(C(=O)N2CCCC2c2ccccc2Cl)c1F (centres unmarked) [Example 6]
Efficacy (Sphaerotheca fuliginea): 90% | Efficacy (Alternaria solani): 100% | Efficacy (Pyrenophora teres): 100%

logP [1]: 3.04
Structure (SMILES): Cn1nc(C(F)F)c(C(=O)N2CCCC2c2ccc(Cl)cc2)c1Cl (centres unmarked) [Example 7]
Efficacy (Alternaria solani): 95% | Efficacy (Pyrenophora teres): 70%

logP [1]: 2.90
Structure (SMILES): Cn1nc(C(F)F)c(C(=O)N2CCCC2c2ccc(Cl)cc2)c1F (centres unmarked) [Example 8]
Efficacy (Alternaria solani): 100% | Efficacy (Pyrenophora teres): 100%

logP [1]: 2.82
Structure (SMILES): Cn1nc(C(F)F)c(C(=O)N2CCCC2c2cc(F)cc(F)c2)c1Cl (centres unmarked) [Example 9]
Efficacy (Pyrenophora teres): 90%

logP [1]: 2.35
Structure (SMILES): Cn1nc(C(F)F)c(C(=O)N2CCCC2c2ccc3c(c2)OCO3)c1F (centres unmarked) [Example 11]
Efficacy (Pyrenophora teres): 70%

logP [1]: 3.90
Structure (SMILES): Cn1nc(C(F)F)c(C(=O)N2CCCC2c2ccc(C(C)(C)C)cc2)c1Cl (centres unmarked) [Example 12]
Efficacy (Alternaria solani): 90% | Efficacy (Pyrenophora teres): 95%

logP [1]: 3.19
Structure (SMILES): Cn1nc(C(F)F)c(C(=O)N2CCCC2c2ccccc2C(F)(F)F)c1Cl (centres unmarked) [Example 14]
Efficacy (Alternaria solani): 95% | Efficacy (Pyrenophora teres): 90%

logP [1]: 3.57
Structure (SMILES): Cn1nc(C(F)F)c(C(=O)N2CCCC2c2ccc(Cl)cc2Cl)c1Cl (centres unmarked) [Example 23]
Efficacy (Alternaria solani): 95% | Efficacy (Pyrenophora teres): 100%

logP [1]: 3.37
Structure (SMILES): Cn1nc(C(F)F)c(C(=O)N2CCCC2c2ccc(Cl)c(Cl)c2)c1Cl (centres unmarked) [Example 25]
Efficacy (Alternaria solani): 95% | Efficacy (Pyrenophora teres): 95%

logP [1]: 3.65
Structure (SMILES): Cn1nc(C(F)F)c(C(=O)N2CCCC2c2ccc(-c3ccccc3)cc2)c1Cl (centres unmarked) [Example 30]
Efficacy (Pyrenophora teres): 100%

logP [1]: 3.09
Structure (SMILES): Cn1nc(C(F)F)c(C(=O)N2CCCC2c2ccccc2Br)c1Cl (centres unmarked) [Example 31]
Efficacy (Alternaria solani): 90% | Efficacy (Pyrenophora teres): 95%

logP [1]: 3.06
Structure (SMILES): Cn1nc(C(F)F)c(C(=O)N2CCCC2c2cccc(Br)c2)c1Cl (centres unmarked) [Example 33]
Efficacy (Alternaria solani): 95% | Efficacy (Pyrenophora teres): 100%

logP [1]: 1.14
Structure (SMILES): Cn1nc(C(F)F)c(C(=O)N2CCCC2c2ccc3ncccc3c2)c1F (centres unmarked) [Example 47]

logP [1]: 3.25
Structure (SMILES): Cn1nc(C(F)F)c(C(=O)N2CCCC2c2cc3ccccc3s2)c1Cl (centres unmarked) [Example 49]
Efficacy (Pyrenophora teres): 95%

logP [1]: 2.61
Structure (SMILES): Cn1nc(C(F)F)c(C(=O)N2CCCC2c2nc3ccccc3s2)c1Cl (centres unmarked) [Example 50]

logP [1]: 4.36
Structure (SMILES): Cn1nc(C(F)F)c(C(=O)N2CCC[C@H]2COc2c(Cl)cc(Cl)cc2Cl)c1Cl [Example 81]
Efficacy (Sphaerotheca fuliginea): 100%

logP [1]: 3.44
Structure (SMILES): Cn1nc(C(F)F)c(C(=O)N2CCC[C@H]2COc2ccc(Cl)cc2)c1Cl [Example 86]

Source: patent US8614242B2, “1-(heterocyclic carbonyl)-2-substituted pyrrolidines” (Bayer Intellectual Property GmbH, priority 2010, dated 2013)
